Converted amounts (≈) assume the structure as drawn.
What was measured:
[1] = tested on: Haemophilus influenzae (H. influenzae) 49247; assay: Antibacterial activity, MIC (Table 6); assay type: cell-based
Description: (§1) The antibacterial activity from a microbroth dilution method may be presented as the minimum inhibitory concentration (MIC in μg/mL). The MIC value is the lowest concentration of drug which prevents macroscopically visible growth under test conditions.
(§2) Antibacterial activity of test compounds against the Gram-negative bacteria Haemophilus influenzae (H. influenzae) 49247 is shown in Table 6, Moraxella catarrhalis (M. catarrhalis) 25238 is shown in Table 7 and Neisseria meningitidis (N. meningitidis) 13090 is shown in Table 8.

[2] = tested on: Moraxella catarrhalis (M. catarrhalis) 25238; assay: Antibacterial activity, MIC (Table 7); assay type: cell-based
Description: as §1, §2

[3] = tested on: Staphylococcus aureus (S. aureus) 29213; assay: Antibacterial activity, microbroth dilution MIC (Table 1); assay type: cell-based; details: microbroth dilution, Gram-positive S. aureus 29213, read-out: MIC, 29213
Method in brief: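 Values are MICs (μg/mL): the smallest drug amount at which macroscopically visible bacterial growth is absent under assay conditions, from a microdilution method in broth.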

[4] = tested on: Escherichia coli (E. coli) BAS849; assay: as above; assay type: cell-based; details: microbroth dilution, super sensitive Gram-negative E. coli BAS849, read-out: MIC, BAS849
Method in brief: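 Broth microdilution; endpoint = no macroscopic growth; value = lowest inhibiting concn, μg/mL.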

[5] = tested on: Acinetobacter baumannii (A. baumannii) BAA747; assay: Antibacterial activity, MIC (Table 4); assay type: cell-based; details: A. baumannii BAA747, read-out: MIC, BAA747
Method in brief: (§3)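 Values are MICs in μg/mL, read as the lowest compound concentration at which no growth is visible by eye. They come from a microbroth dilution method.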

[6] = tested on: Klebsiella pneumoniae (K. pneumoniae) 35657; assay: Antibacterial activity, MIC (Table 4); assay type: cell-based; details: K. pneumoniae 35657, read-out: MIC, 35657
Method in brief: as §3

[7] = tested on: E. coli ELZ4251; assay: Antibacterial activity, MIC, multi-drug resistant clinical isolate (Table 3); assay type: cell-based; details: Escherichia coli
Method in brief: (§4)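 Growth inhibition is measured by microbroth dilution, and the minimum inhibitory concentration in μg/mL corresponds to the lowest drug level that prevents visible bacterial growth.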

[8] = tested on: E. coli ELZ4000; assay: as above; assay type: cell-based; details: Escherichia coli, ELZ4000, read-out: MIC ELZ4000
Method in brief: as §4

[9] = tested on: Neisseria meningitidis (N. meningitidis) 13090; assay: Antibacterial activity, MIC (Table 8); assay type: cell-based
Description: as §1, §2

[10] = tested on: E. coli 25922; assay: Antibacterial activity, microbroth dilution MIC (Table 1); assay type: cell-based, Escherichia coli; details: Escherichia coli; microbroth dilution; control Gram-negative E. coli 25922 strain; read-out: MIC, 25922
Method in brief: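 Potency is reported as minimum inhibitory concentration in μg/mL, determined by broth microdilution as the lowest level of compound that stops growth visible to the eye.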

[11] = tested on: K. pneumoniae MXX1232; assay: Antibacterial activity, MIC, resistant strain (Table 4); assay type: cell-based; details: Klebsiella pneumoniae, MXX1232; resistant K. pneumoniae MMX1232, multi-drug resistant clinical isolate; read-out: MIC, MMX1232
Method in brief: as §3

[12] = tested on: A. baumannii MXX2240; assay: as above; assay type: cell-based; details: Acinetobacter baumannii, MXX2240; resistant A. baumannii MMX2240, multi-drug resistant clinical isolate; read-out: MIC, MMX2240
Method in brief: as §3

[13] = tested on: Pseudomonas aeruginosa (P. aeruginosa) 27853; assay: Antibacterial activity, MIC (Table 5); assay type: cell-based; details: P. aeruginosa 27853, read-out: MIC, 27853
Method in brief: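 MIC in μg/mL from broth microdilution; endpoint is the lowest drug level giving no visible growth.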

[14] = tested on: E. coli LZ3111; assay: Antibacterial activity, MIC, quinolone resistant strain (Table 2); assay type: cell-based; details: Escherichia coli, LZ3111, read-out: MIC LZ3111
Method in brief: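 Lowest concentration giving no macroscopically visible growth was taken as the MIC (μg/mL) after microbroth dilution testing.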

| Compound | MIC [1] [µg/mL] | MIC [2] [µg/mL] | MIC [3] [µg/mL] | MIC [4] [µg/mL] | MIC [5] [µg/mL] | MIC [6] [µg/mL] | MIC [7] [µg/mL] | MIC [8] [µg/mL] | MIC [9] [µg/mL] | MIC [10] [µg/mL] | MIC [11] [µg/mL] | MIC [12] [µg/mL] | MIC [13] [µg/mL] | MIC [14] [µg/mL] |
| --- | --- | --- | --- | --- | --- | --- | --- | --- | --- | --- | --- | --- | --- | --- |
| CCc1c(-c2ccc3c(ccn3C)c2)[nH]c(=O)c(C(=O)O)c1O [Cpd 22, 5-ethyl-4-hydroxy-6-(1-methyl-1H-indol-5-yl)-2-oxo-1,2-dihydropyridine-3-carboxylic acid] | < 1 | < 1 | 1 to 3.5 (≈ 3.2 to 11.2 µM) | < 1 | < 1 | 1 to 3.5 (≈ 3.2 to 11.2 µM) | 3.5 to 12.5 (≈ 11.2 to 40 µM) | 3.5 to 12.5 (≈ 11.2 to 40 µM) | < 1 | < 1 | 12.5 to 150 (≈ 40 to 480 µM) | < 1 | 12.5 to 150 (≈ 40 to 480 µM) | 1 to 3.5 (≈ 3.2 to 11.2 µM) |
| CCc1c(-c2cnc3c(ccn3C)c2)[nH]c(=O)c(C(=O)O)c1O [Cpd 32, 5-ethyl-4-hydroxy-6-(1-methyl-1H-pyrrolo[2,3-b]pyridin-5-yl)-2-oxo-1,2-dihydropyridine-3-carboxylic acid] | 1 to 3.5 (≈ 3.19 to 11.2 µM) | 1 to 3.5 (≈ 3.19 to 11.2 µM) | 3.5 to 12.5 (≈ 11.2 to 39.9 µM) | < 1 | 12.5 to 150 (≈ 39.9 to 479 µM) | 12.5 to 150 (≈ 39.9 to 479 µM) | < 1 | 1 to 3.5 (≈ 3.19 to 11.2 µM) | < 1 | 12.5 to 150 (≈ 39.9 to 479 µM) | 12.5 to 150 (≈ 39.9 to 479 µM) | < 1 | 12.5 to 150 (≈ 39.9 to 479 µM) | 1 to 3.5 (≈ 3.19 to 11.2 µM) |
| Cn1ccc2cc(-c3[nH]c(=O)c(C(=O)O)c(O)c3C3CC3)ccc21 [Cpd 36, 5-cyclopropyl-4-hydroxy-6-(1-methyl-1H-indol-5-yl)-2-oxo-1,2-dihydropyridine-3-carboxylic acid] | 3.5 to 12.5 (≈ 10.8 to 38.5 µM) | 1 to 3.5 (≈ 3.08 to 10.8 µM) | 3.5 to 12.5 (≈ 10.8 to 38.5 µM) | 1 to 3.5 (≈ 3.08 to 10.8 µM) | 12.5 to 150 (≈ 38.5 to 462 µM) | 12.5 to 150 (≈ 38.5 to 462 µM) | 1 to 3.5 (≈ 3.08 to 10.8 µM) | 3.5 to 12.5 (≈ 10.8 to 38.5 µM) | < 1 | 12.5 to 150 (≈ 38.5 to 462 µM) | 12.5 to 150 (≈ 38.5 to 462 µM) | 1 to 3.5 (≈ 3.08 to 10.8 µM) | 12.5 to 150 (≈ 38.5 to 462 µM) | 3.5 to 12.5 (≈ 10.8 to 38.5 µM) |
| CCc1c(-c2ccc3c(cnn3C)c2)[nH]c(=O)c(C(=O)O)c1O [Cpd 42, 5-ethyl-4-hydroxy-6-(1-methyl-1H-indazol-5-yl)-2-oxo-1,2-dihydropyridine-3-carboxylic acid] | < 1 | < 1 | 12.5 to 150 (≈ 39.9 to 479 µM) | < 1 | 1 to 3.5 (≈ 3.19 to 11.2 µM) | 3.5 to 12.5 (≈ 11.2 to 39.9 µM) | 3.5 to 12.5 (≈ 11.2 to 39.9 µM) | 3.5 to 12.5 (≈ 11.2 to 39.9 µM) | < 1 | 3.5 to 12.5 (≈ 11.2 to 39.9 µM) | 12.5 to 150 (≈ 39.9 to 479 µM) | 3.5 to 12.5 (≈ 11.2 to 39.9 µM) | 12.5 to 150 (≈ 39.9 to 479 µM) | 1 to 3.5 (≈ 3.19 to 11.2 µM) |
| CCNCc1cc2cc(-c3[nH]c(=O)c(C(=O)O)c(O)c3CC)ccc2n1C [Cpd 165, 5-ethyl-6-(2-((ethylamino)methyl)-1-methyl-1H-indol-5-yl)-4-hydroxy-2-oxo-1,2-dihydropyridine-3-carboxylic acid] | < 1 | < 1 | 3.5 to 12.5 (≈ 9.47 to 33.8 µM) | < 1 | < 1 | < 1 | 1 to 3.5 (≈ 2.71 to 9.47 µM) | 3.5 to 12.5 (≈ 9.47 to 33.8 µM) | < 1 | < 1 | 12.5 to 150 (≈ 33.8 to 406 µM) | 3.5 to 12.5 (≈ 9.47 to 33.8 µM) | 3.5 to 12.5 (≈ 9.47 to 33.8 µM) | 1 to 3.5 (≈ 2.71 to 9.47 µM) |
| CCc1c(-c2ccc3c(c2)cc(CN(C)C)n3C)[nH]c(=O)c(C(=O)O)c1O [Cpd 166, 6-(2-((dimethylamino)methyl)-1-methyl-1H-indol-5-yl)-5-ethyl-4-hydroxy-2-oxo-1,2-dihydropyridine-3-carboxylic acid] | < 1 | < 1 | 3.5 to 12.5 (≈ 9.47 to 33.8 µM) | < 1 | < 1 | < 1 | 3.5 to 12.5 (≈ 9.47 to 33.8 µM) | 12.5 to 150 (≈ 33.8 to 406 µM) | < 1 | < 1 | 12.5 to 150 (≈ 33.8 to 406 µM) | 1 to 3.5 (≈ 2.71 to 9.47 µM) | 3.5 to 12.5 (≈ 9.47 to 33.8 µM) | 3.5 to 12.5 (≈ 9.47 to 33.8 µM) |

From patent publication US9409905B2, “Antibacterial compounds and methods for use” (PTC THERAPEUTICS, INC., priority 2011, dated 2016)
